One assay relates to LNCap cells. Put plainly: Cell viability assay (CellTiterGlo). The note with it: Homo sapiens, 144 h. The format is cell-based. (ATP-based viability assays read luminescence as a measure of living cells.)
The next assay deals with T47D cells. Put plainly: Cell viability assay (CellTiterGlo). The format is cell-based. The note with it: Homo sapiens, 144 h.
The target in assay [1] is T1, Progesterone PR-B receptors from human breast carcinoma T47D cells (Homo sapiens, UniProt P06401).
T1 sequence (P06401 1-933): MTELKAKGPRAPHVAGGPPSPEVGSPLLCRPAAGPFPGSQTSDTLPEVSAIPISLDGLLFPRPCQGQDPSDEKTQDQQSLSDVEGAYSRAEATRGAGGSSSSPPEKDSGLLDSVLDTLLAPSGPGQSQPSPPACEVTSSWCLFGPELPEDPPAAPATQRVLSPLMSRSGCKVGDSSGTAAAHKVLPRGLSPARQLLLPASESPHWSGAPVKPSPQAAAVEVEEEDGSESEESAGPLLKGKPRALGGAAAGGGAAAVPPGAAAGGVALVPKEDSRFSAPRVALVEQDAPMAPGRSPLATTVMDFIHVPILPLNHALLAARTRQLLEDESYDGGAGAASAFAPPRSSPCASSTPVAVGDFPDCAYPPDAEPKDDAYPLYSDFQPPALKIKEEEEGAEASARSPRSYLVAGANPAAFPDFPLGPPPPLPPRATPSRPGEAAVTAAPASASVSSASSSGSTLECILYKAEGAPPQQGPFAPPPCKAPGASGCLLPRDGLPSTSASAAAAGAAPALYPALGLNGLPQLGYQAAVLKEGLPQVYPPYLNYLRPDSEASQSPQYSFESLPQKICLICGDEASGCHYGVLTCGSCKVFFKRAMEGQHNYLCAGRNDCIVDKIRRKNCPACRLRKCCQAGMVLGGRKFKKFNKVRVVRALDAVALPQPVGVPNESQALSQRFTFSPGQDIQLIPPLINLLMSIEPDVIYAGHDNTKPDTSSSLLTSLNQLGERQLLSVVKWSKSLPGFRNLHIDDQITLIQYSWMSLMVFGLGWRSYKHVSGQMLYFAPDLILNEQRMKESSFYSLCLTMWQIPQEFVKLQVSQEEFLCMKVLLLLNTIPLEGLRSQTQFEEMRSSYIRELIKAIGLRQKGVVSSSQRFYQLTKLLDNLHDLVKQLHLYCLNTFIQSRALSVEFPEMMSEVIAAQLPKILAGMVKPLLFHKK
In words: PR binding assay ([3H] Progesterone displacement).

The test system of a further assay is IEC6 cells. In words: Cell viability assay (CellTiterGlo). Particulars: Rattus norvegicus, IEC-6, 144 h, read-out: IEC-6 (IC50, nM).
Assay [2] has as its target T2, AR (cytosol from LnCaP cells) (Homo sapiens, UniProt P10275, T878A).
T2 sequence (P10275 1-920 T878A): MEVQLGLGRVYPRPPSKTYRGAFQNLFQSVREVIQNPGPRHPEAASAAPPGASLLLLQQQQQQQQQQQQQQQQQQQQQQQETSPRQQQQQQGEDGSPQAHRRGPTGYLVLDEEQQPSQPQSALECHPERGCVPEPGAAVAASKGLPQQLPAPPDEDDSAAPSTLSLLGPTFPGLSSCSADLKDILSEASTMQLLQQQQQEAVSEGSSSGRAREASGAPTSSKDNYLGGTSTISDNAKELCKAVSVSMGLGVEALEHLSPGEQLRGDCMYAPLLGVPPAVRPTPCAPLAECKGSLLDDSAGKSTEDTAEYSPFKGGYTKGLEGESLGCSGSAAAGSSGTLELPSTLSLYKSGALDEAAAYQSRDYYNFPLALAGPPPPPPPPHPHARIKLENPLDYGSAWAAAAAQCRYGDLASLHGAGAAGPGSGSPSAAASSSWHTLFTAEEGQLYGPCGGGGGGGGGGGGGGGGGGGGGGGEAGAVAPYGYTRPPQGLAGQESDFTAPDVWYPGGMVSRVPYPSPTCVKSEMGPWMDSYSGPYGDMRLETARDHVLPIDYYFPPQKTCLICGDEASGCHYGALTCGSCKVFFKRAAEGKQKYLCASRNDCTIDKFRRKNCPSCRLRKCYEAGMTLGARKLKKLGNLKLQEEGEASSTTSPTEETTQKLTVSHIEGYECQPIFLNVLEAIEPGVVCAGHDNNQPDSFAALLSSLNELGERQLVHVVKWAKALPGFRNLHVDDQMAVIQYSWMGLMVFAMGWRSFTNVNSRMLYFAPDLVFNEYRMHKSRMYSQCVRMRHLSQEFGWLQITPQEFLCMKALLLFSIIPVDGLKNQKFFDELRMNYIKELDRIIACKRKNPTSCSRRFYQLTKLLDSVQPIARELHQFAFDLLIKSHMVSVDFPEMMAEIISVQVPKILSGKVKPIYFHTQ
Put plainly: AR binding assay (3H-R1881 displacement).
Procedure: The plate was then centrifuged at 3000 rpm for 30 minutes at 4° C.

Assay [3] deals with T3, full-length androgen receptor (HEK293 cells stably expressing) (Homo sapiens, UniProt P10275).
T3 sequence (P10275 1-920): T2 sequence (P10275 1-920 T878A) with A878T
In words: AR antagonism assay (luciferase reporter).
Procedure: AR antagonism assay: To evaluate AR antagonist activity, test compound was added to the assay plate (top dose 10 μM, 3 fold serial dilution, 10 point dose response). HEK293 cells stably expressing the full-length androgen receptor were seeded at a density of 20000 cells/well in the assay plate. The assay plate was then incubated at room temperature for 10 minutes and at 37° C. 5% CO2 for 20 minutes. Testosterone was added to the assay plate at 1 nM final concentration and the assay plate incubated at 37° C., 5% CO2 for 20 h. […] Steady-glo was added to the assay plate and mixed at room temperature for 20 minutes on an orbital shaker, before reading out on the En Vision plate reader.

Assay [4] concerns the target T4, ligand binding domain of the glucocorticoid receptor (HEK293 cells stably expressing) (Homo sapiens, UniProt P04150).
T4 sequence (P04150 524-758 limits assumed): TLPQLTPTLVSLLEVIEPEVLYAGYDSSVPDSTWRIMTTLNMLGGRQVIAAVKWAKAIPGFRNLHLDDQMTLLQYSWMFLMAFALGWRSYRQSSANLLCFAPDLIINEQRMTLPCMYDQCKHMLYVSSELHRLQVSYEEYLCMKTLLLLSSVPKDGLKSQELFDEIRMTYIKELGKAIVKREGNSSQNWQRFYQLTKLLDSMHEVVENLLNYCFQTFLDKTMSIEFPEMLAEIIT
Put plainly: GR antagonism assay (luciferase reporter). In general terms: A reporter such as luciferase makes a cellular process visible.
Procedure: HEK293 cells stably expressing the ligand binding domain of the glucocorticoid receptor were seeded at a density of 40000 cells/well in the assay plate. The assay plate was then incubated at 37° C., 5% CO2 for 30 minutes. Dexamethasone was added to the assay plate at 1.5 nM final concentration and the assay plate incubated at 37° C., 5% CO2 for 20 h. After the incubation period, Dual-glo luciferase reagent was added to the assay plate and mixed at room temperature for 20 minutes on an orbital shaker, before reading out on the En Vision plate reader. 50 μL of Stop & Glo reagent was added to assay plate, mixed at room temperature for 20 minutes, and read on the Envision plate reader.

The mark [5] stands for this setting: 6 days incubation, CellTiterGlo, read-out: LNCap (IC50).
[6] abbreviates: 6 days incubation, CellTiterGlo, read-out: T47D (IC50).

By IC50 is commonly meant the concentration needed to halve the response being measured.

Substitutions are numbered along the chain they refer to. Structures can show the parent of a compound that is named as a salt. Where two headings read alike, the source gives them in different places.

For the compound `CC[C@@]1(OC(=O)N2CCN(CCCCCCN(C)c3ccc([C@H]4C[C@@]5(C)[C@@H](CC[C@]5(OC(C)=O)C(C)=O)[C@@H]5CCC6=CC(=O)CCC6=C54)cc3)CC2)C(=O)OCc2c1cc1n(c2=O)Cc2cc3cc(OC)ccc3nc2-1` [Compound 24, (S)-4-Ethyl-9-methoxy-3,14-dioxo-3,4,12,14-tetrahydro-1H-pyrano[3′,4′:6,7]indolizino[1,2-b]quinolin-4-yl 4-(6-((4-((8S,11R,13S,14S,17R)-17-acetoxy-17-acetyl-13-methyl-3-oxo-2,3,6,7,8,11,12,13,14,15,16,17-dodecahydro-1H-cyclopenta[a]phenanthren-11-yl)phenyl)(methyl)amino)hexyl)piperazine-1-carboxylate Formate], the IC50 with LNCap cells (read-out: LNCap (IC50)) was 101 to 1000 nM; in the assay with T47D cells (read-out: T47D (IC50)), 101 to 1000 nM; in assay [1], below 10 nM.
With `CC[C@@]1(O)C(=O)OCc2c1cc1n(c2=O)Cc2cc3c(CN(C)C)c(OC(=O)N4C[C@H](C)N(C(=O)[C@H](CCCNC(N)=O)NC(=O)[C@@H](NCCCCCCN(C)c5ccc([C@H]6C[C@@]7(C)[C@@H](CC[C@]7(OC(C)=O)C(C)=O)[C@@H]7CCC8=CC(=O)CCC8=C76)cc5)C(C)C)C[C@H]4C)ccc3nc2-1` [Compound 35], the IC50 in the assay on LNCap cells (read-out: LNCap (IC50, nM)) is above 1000 nM; in the assay on T47D cells (read-out: T47D (IC50, nM)), 101 to 1000 nM; with IEC6 cells it was above 1000 nM; in assay [2] it was 10 to 100 nM; in assay [3] it was above 1000 nM; in assay [4] it was 10 to 100 nM. The IC50 in assay [1] is below 10 nM.
On to `CC[C@@]1(O)C(=O)OCc2c1cc1n(c2=O)Cc2c-1nc1cc(F)c(C)c3c1c2[C@@H](NC(=O)CN1CCN(CCCCCCN(C)c2ccc([C@H]4C[C@@]5(C)[C@@H](CC[C@]5(OC(C)=O)C(C)=O)[C@@H]5CCC6=CC(=O)CCC6=C54)cc2)CC1)CC3` [Compound 37, (8S,11R,13S,14S,17R)-17-acetyl-11-(4-((6-(4-(2-(((1S,9S)-9-ethyl-5-fluoro-9-hydroxy-4-methyl-10,13-dioxo-2,3,9,10,13,15-hexahydro-1H,12H-benzo[de]pyrano[3′,4′:6,7]indolizino[1,2-b]quinolin-1-yl)amino)-2-oxoethyl)piperazin-1-yl)hexyl)(methyl)amino)phenyl)-13-methyl-3-oxo-2,3,6,7,8,11,12,13,14,15,16,17-dodecahydro-1H-cyclopenta[a]phenanthren-17-yl acetate], for which the IC50 in the assay with LNCap cells (setting [5]) is 101 to 1000 nM; in the assay with T47D cells (setting [6]), 10 to 100 nM; in the assay with IEC6 cells it was 101 to 1000 nM; in assay [2], below 10 nM; in assay [3], 101 to 1000 nM; in assay [4] it was 10 to 100 nM. The IC50 in assay [1] is below 10 nM.
In the case of `CC[C@@]1(O)C(=O)OCc2c1cc1n(c2=O)Cc2cc3c(CN4CCN(CCCCCCN(C)c5ccc([C@H]6C[C@@]7(C)[C@@H](CC[C@]7(OC(C)=O)C(C)=O)[C@@H]7CCC8=CC(=O)CCC8=C76)cc5)CC4)cccc3nc2-1` [Compound 38, (8S,11R,13S,14S,17R)-17-acetyl-11-(4-((6-(4-(((S)-4-ethyl-4-hydroxy-3,14-dioxo-3,4,12,14-tetrahydro-1H-pyrano[3′,4′:6,7]indolizino[1,2-b]quinolin-10-yl)methyl)piperazin-1-yl)hexyl)(methyl)amino)phenyl)-13-methyl-3-oxo-2,3,6,7,8,11,12,13,14,15,16,17-dodecahydro-1H-cyclopenta[a]phenanthren-17-yl acetate], the IC50 with LNCap cells (setting [5]) was 101 to 1000 nM; with T47D cells (setting [6]), 101 to 1000 nM; in the assay on IEC6 cells it was above 1000 nM; in assay [2], below 10 nM; in assay [3], above 1000 nM; in assay [4], 10 to 100 nM. Besides, the IC50 in assay [1] is below 10 nM.
Turning to `CC[C@@]1(O)C(=O)OCc2c1cc1n(c2=O)Cc2cc3c(CN4CCN(C(=O)OCCCCN(C)c5ccc([C@H]6C[C@@]7(C)[C@@H](CC[C@]7(OC(C)=O)C(C)=O)[C@@H]7CCC8=CC(=O)CCC8=C76)cc5)CC4)c(O)ccc3nc2-1` [Compound 41, 4-((4-((8S,11R,13S,14S,17R)-17-acetoxy-17-acetyl-13-methyl-3-oxo-2,3,6,7,8,11,12,13,14,15,16,17-dodecahydro-1H-cyclopenta[a]phenanthren-11-yl)phenyl)(methyl)amino)butyl 4-(((S)-4-ethyl-4,9-dihydroxy-3,14-dioxo-3,4,12,14-tetrahydro-1H-pyrano[3′,4′:6,7]indolizino[1,2-b]quinolin-10-yl)methyl)piperazine-1-carboxylate], the IC50 was 10 to 100 nM in the assay with LNCap cells (setting [5]); 10 to 100 nM in the assay on T47D cells (setting [6]); 101 to 1000 nM in the assay with IEC6 cells; 10 to 100 nM in assay [2]; 101 to 1000 nM in assay [3]; below 10 nM in assay [4]. Also, the IC50 in assay [1] was below 10 nM.

(Values after patent US20260102501A1, “ANTI-CANCER NUCLEAR HORMONE RECEPTOR-TARGETING COMPOUNDS” (Nuvation Bio Inc., priority 2022, published 2026).)
